Data taken from patent publication EP0882734B1, “5'-Deoxy-cytidine derivatives” (F. Hoffmann-La Roche AG, priority 1997, dated 1998).
Marks after values point to notes of the source that are not given here.

Tests used:
[1] = system: human prostate cancer xenograft PC-3; assay: Enhancement of capecitabine antitumor activity in PC-3 xenograft; details: oral
Method: Compound A of Example 6 was examined for its activity to enhance the efficacy of capecitabine in BALB/c nude mice bearing the human prostate cancer xenograft PC-3. Compound A and capecitabine were orally given simultaneously or sequentially 5 successive days per week for 3 weeks starting on day 53 after the tumor inoculation when the tumor becomes palpable. On day 75, tumor volume gain and the percentage of the tumor growth inhibition were calculated.

[2] = mouse, in vivo, 420 min
Method: In this study, fluoropyrimidines, such as 5-FU, doxifluridine [5'-deoxy-5-fluorouridine] and capecitabine [5'-deoxy-5-fluoro-N^4-(n-pentyloxycarbonyl)cytidine], were given to BALB/c nude mice bearing the human gastric cancer xenograft MKN28 in combination with either compound A or 5-EU. Then, 5-FU levels in the plasma and tumor tissues were measured at 0.25, 0.5, 2, 4 and 7 hours after each fluoropyrimidine administration (n = 3 mice), and 5-FU AUC was calculated. […]

DPD [3] = target: T1, DPD (Mus musculus, UniProt Q8CHR6); assay: DPD activity in liver and tumor tissues of PC-3 xenograft mice after administration; assay type: in vivo, BALB/c nude mice; details: Liver, Compound A 0.5 mmol/kg, 5-EU 0.05 µmol/kg
T1 construct: The liver and tumor tissues were resected out from each group of three mice; from tissue; host or cells: liver (mouse host) and PC-3 tumour xenograft tissue from BALB/c nude mice
T1 sequence (Q8CHR6 1-1025): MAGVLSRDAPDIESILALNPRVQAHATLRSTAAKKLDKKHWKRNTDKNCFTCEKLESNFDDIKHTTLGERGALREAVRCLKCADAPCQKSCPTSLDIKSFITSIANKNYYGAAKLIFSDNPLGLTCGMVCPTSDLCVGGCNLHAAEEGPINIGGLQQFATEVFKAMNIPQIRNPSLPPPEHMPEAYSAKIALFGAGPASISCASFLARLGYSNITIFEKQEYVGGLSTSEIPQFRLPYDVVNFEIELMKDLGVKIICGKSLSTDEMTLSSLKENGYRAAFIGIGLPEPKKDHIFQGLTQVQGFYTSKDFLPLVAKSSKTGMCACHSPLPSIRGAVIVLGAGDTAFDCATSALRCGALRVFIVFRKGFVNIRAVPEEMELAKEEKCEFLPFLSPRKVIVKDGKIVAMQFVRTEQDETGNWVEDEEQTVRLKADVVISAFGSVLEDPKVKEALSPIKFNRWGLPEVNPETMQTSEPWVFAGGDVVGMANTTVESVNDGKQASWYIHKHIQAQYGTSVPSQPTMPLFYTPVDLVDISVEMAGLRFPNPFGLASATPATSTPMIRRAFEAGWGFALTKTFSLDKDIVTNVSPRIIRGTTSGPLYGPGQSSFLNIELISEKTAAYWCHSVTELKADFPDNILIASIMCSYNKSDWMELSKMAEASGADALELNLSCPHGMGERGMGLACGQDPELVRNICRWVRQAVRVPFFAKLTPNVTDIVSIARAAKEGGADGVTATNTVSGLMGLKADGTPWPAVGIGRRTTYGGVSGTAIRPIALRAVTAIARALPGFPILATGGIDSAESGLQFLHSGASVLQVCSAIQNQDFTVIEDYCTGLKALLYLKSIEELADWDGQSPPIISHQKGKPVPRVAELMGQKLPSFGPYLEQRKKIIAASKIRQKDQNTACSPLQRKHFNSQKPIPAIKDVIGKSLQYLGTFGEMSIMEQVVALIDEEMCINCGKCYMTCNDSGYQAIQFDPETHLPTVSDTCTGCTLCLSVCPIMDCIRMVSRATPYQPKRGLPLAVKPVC
Method: (§1) The liver and tumor tissues were resected out from each group of three mice at 2 and 8 hours after the administration of the Compound A (0.5 mmol/kg) and 5-EU ([…]). DPD activity in these tissues was then measured as described elsewhere (Naguib et al., Cancer Research 45, 5405-5412, 1985). […] Table 1. Inhibition of DPD activity by Compound A of Example 6

DPD [4] = target: T2, DPD (Homo sapiens, UniProt Q12882); assay: as above; assay type: in vivo, BALB/c nude mice; details: Tumor (PC-3), Compound A 0.5 mmol/kg, 5-EU 0.05 µmol/kg
T2 construct: The liver and tumor tissues were resected out from each group of three mice; from tissue; host or cells: liver (mouse host) and PC-3 tumour xenograft tissue from BALB/c nude mice
T2 sequence (Q12882 4-1025): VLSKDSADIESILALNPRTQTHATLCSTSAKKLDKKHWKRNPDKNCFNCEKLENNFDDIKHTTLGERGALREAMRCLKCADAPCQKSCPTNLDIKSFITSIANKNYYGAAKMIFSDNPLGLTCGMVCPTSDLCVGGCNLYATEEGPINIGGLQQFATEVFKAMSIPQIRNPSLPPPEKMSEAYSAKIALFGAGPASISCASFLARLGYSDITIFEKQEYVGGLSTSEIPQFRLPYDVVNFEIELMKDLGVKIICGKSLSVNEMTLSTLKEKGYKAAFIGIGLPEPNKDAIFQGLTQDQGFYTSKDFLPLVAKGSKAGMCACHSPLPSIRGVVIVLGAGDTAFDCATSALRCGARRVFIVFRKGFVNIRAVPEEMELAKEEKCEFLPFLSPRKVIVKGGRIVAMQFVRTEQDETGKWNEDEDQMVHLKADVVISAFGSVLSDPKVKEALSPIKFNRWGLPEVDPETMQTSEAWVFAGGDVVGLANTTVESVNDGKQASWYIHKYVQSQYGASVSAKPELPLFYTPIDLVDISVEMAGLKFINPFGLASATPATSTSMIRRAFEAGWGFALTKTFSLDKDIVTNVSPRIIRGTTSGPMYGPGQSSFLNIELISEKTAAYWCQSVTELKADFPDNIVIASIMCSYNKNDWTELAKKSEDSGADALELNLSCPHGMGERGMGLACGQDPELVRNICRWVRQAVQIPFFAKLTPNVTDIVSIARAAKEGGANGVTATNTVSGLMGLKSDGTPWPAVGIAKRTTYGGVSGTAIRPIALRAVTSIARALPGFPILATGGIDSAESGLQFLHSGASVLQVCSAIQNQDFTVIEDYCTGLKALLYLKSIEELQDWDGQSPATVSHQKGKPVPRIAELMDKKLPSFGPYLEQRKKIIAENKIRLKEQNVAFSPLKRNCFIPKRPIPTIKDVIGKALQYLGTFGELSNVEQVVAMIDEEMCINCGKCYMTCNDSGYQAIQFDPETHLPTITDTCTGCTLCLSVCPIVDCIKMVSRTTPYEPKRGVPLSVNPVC
Method: as §1

[5] = Cytotoxicity of compound A itself (data not shown)
[6] = Capecitabine 1.0 mmol/kg/d + Compound A 1.0 µmol/kg/d given one hour prior to capecitabine
[7] = Capecitabine 1.0 mmol/kg/d + Compound A 1.0 µmol/kg/d given simultaneously
[8] = 2 hr after administration, control 288
[9] = 8 hr after administration, control 162
[10] = 2 hr after administration, control 31
[11] = 8 hr after administration, control 29

In the case of `CCCCCOC(=O)Nc1nc(=O)n([C@@H]2O[C@H](C)[C@@H](O)[C@H]2O)cc1F` [Capecitabine, 5'-deoxy-5-fluoro-N^4-(n-pentyloxycarbonyl)cytidine], the “Tumor growth inhibition (%) Day 75” value ([1]; Capecitabine 1.0 mmol/kg/d alone, 5 successive days per week for 3 weeks) was 23%, the “Tumor volume change (mm^3) Day 53-75” value ([1]; Capecitabine 1.0 mmol/kg/d alone, 5 successive days per week for 3 weeks, control 981) was 757 mm^3 and the “Body weight change (g) Day 75” value ([1]; Capecitabine 1.0 mmol/kg/d alone, control -3.6) was -3.4 g. For the same compound, the “5-FU AUC Tumor” value [2] was 30 nmolohr/mL.

In the case of `C#Cc1cn([C@@H]2O[C@H](C)[C@@H](O)[C@H]2O)c(=O)nc1NC(=O)OCCCCC` [Compound A, 5'-deoxy-5-ethynyl-N^4-(n-pentyloxycarbonyl)cytidine], the “Body weight change (g) Day 75” value [1, 6] was -0.3 g, the “Tumor growth inhibition (%) Day 75” value [1, 6] was 80% and the “Tumor volume change (mm^3) Day 53-75” value ([1]; Capecitabine 1.0 mmol/kg/d + Compound A 1.0 µmol/kg/d given one hour prior to capecitabine, p < 0.05 vs control) was 201* mm^3. For the same compound, the “Body weight change (g) Day 75” value [1, 7] was -1.8 g, the “Tumor growth inhibition (%) Day 75” value [1, 7] was 67% and the “Tumor volume change (mm^3) Day 53-75” value ([1]; Capecitabine 1.0 mmol/kg/d + Compound A 1.0 µmol/kg/d given simultaneously, p < 0.05 vs control) was 323* mm^3. It also gave a DPD activities (DPD [3]; [8]) of 177 pmol/mg protein/min, a DPD activities (DPD [3]; [9]) of 326 pmol/mg protein/min and a DPD activities (DPD [4]; [10]) of 9 pmol/mg protein/min. The DPD activities (DPD [4]; [11]) was 9 pmol/mg protein/min and the cytotoxicity [5] was “not cytotoxic”.

For `C[C@H]1O[C@@H](n2cc(F)c(=O)[nH]c2=O)[C@H](O)[C@@H]1O` [Doxifluridine, 5'-deoxy-5-fluorouridine], the “5-FU AUC Plasma” value [2] was 2.6 nmolohr/mL and the “5-FU AUC Tumor” value [2] was 8.0 nmolohr/mL.

Work on `C#Cc1c[nH]c(=O)[nH]c1=O` [Example 5-EU, 5-ethynyluracil] yielded a DPD activities (DPD [3]; [8]) of 46 pmol/mg protein/min, a DPD activities (DPD [3]; [9]) of 83 pmol/mg protein/min and a DPD activities (DPD [4]; [10]) of 17 pmol/mg protein/min. The DPD activities (DPD [4]; [11]) was 13 pmol/mg protein/min.
